How the values were obtained:
[1] = biological target: T1, (Ec)FtsY-NG (Escherichia coli, UniProt P10121); assay: Isothermal titration calorimetry (ITC) of nucleotide binding; set-up: species or system E. coli; settings: NG domain, 25 °C, one set of sites model
T1 construct: purified NG domains of (Ec)Ffh, (Ec)FtsY and (Bs)Ffh; His6 (C); made in house; host or cells: E. coli BL21 (DE3)
Experimental: (§1) Ligands and proteins (purified NG domains of (Ec)Ffh, (Ec)FtsY and (Bs)Ffh) were diluted with a buffer containing 20 mM HEPES-Na (pH 7.5), 200 mM NaCl, 20 mM MgCl2 and 20 mM KCl. The NG domains of (Ec)Ffh, (Ec)FtsY and (Bs)Ffh were titrated in the sample-cell at a nominal concentration of 25 µM each. The nucleotides GDP, GTP, ppGpp and pppGpp (Jena Bioscience, Germany) were placed in the syringe and their concentrations were predetermined by absorbance at 252 nm to saturate the protein samples during the titrations. All the measurements were performed at 25 °C with the instrument MicroCal PEAQ-ITC (©Malvern Panalytical) with a method consisting of 13 injections (first 0.4 µL, and the rest 3 µL each) and 150 s of spacing. The raw data (see source) were processed with the MicroCal PEAQ-ITC Analysis Software (©Malvern Panalytical) using the “one set of sites” models.

[2] = biological target: T2, (Bs)Ffh-NG (Bacillus subtilis, UniProt P37105); assay: as above; set-up: species or system B. subtilis; settings: NG domain, 25 °C, one set of sites model
T2 construct: purified NG domains of (Ec)Ffh, (Ec)FtsY and (Bs)Ffh; His6 (N); made in house; host or cells: E. coli Rosetta pLysS
T2 sequence (P37105 1-297 limits assumed): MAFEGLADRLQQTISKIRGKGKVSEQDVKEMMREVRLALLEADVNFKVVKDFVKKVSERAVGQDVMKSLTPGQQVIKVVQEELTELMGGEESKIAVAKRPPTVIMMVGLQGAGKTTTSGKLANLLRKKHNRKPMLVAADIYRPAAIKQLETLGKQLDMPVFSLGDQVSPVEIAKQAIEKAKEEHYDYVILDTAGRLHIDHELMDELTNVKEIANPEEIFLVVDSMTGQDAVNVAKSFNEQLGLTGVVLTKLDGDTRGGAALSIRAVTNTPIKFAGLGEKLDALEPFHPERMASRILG
Experimental: as §1

T1 sequence (P10121 197-497): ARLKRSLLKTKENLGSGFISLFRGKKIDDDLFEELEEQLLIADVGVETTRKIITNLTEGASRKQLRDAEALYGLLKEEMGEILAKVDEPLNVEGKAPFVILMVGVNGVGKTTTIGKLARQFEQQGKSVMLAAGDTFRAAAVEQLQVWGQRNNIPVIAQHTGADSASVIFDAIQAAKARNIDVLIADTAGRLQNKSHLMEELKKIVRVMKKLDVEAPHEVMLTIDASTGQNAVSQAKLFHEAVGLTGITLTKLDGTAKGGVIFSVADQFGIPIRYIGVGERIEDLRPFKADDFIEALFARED

Question: Which Kd [1] does the source give for `Nc1nc2c(ncn2[C@@H]2O[C@H](COP(=O)(O)OP(=O)(O)O)[C@@H](OP(=O)(O)OP(=O)(O)O)[C@H]2O)c(=O)[nH]1` [ppGpp] here?
Answer: 21.7 ± 5.4 µM

Question: What about the Kd [2] of the same compound?
Answer: 4.8 ± 1.8 µM
